Data published in US20130123287A1, “CONTROL AGENT FOR SOFT ROT AND CONTROL METHOD FOR THE SAME” (ISHIHARA SANGYO KAISHA, LTD., priority 2010, published 2013).

Legend:
[1] = tested on: bacteria causing the soft rot (Erwinia carotovora); experiment: Inhibition test of growth of bacteria causing soft rot, Reference Test Example 6; format: cell-based; details: for formed colonies (growth state), grade: PSA medium, 27 degrees Celsius, 3 days
Text: An inhibition test of the growth of bacteria causing the soft rot was done, when a control agent was directly applied to the bacteria causing the soft rot. A given volume of each pesticide of fludioxonil (Seibia FL [trade name] manufactured by Syngenta Japan K.K.), iminoctadine albesilate salt (Bellkute WP [trade name], manufactured by Nippon Soda Co., Ltd.), iprodione (Rovral WP [trade name] manufactured by Bayer Crop Science Co., Ltd.), and streptomycin (Mycin Wettable powder [trade name] manufactured by Hokko Chemical Industry Co., Ltd.) was added together with a suspension of the bacteria causing the soft rot (Erwinia carotovora) to a preliminarily dissolved PSA culture medium (55 degrees Celsius) for subsequent thorough agitation, which was then spread on a plate for culturing at 27 degrees Celsius for 3 days, to examine the growth state. Subsequently, the formed colonies were examined according to the following three grades. • +: at the same level as the level of non-treated lot.
(§1) Plus or minus: apparently less than the colonies of the non-treated lot. • −: almost no colonies observed.

[2] = tested on: soft rot of Chinese cabbage; experiment: Test for controlling soft rot of Chinese cabbage, Example 1 / Comparative Example 1 (field, cultivar Muso); format: in vivo; details: 1/1000 dilution, 300 L/10a sprayed three times on stems and leaves, 54 days after start
Method: 200 g/l Azoxystrobin (Amistar 20 FLOWABLE [trade name], manufactured by Syngenta Japan K.K.) was adjusted to 250 g ai/10a (0.25 g/m^2, 1250 ml Product/10a) as the amount of the active ingredient and to 150 L/10a as the volume of diluent water.
100 g/l Cyazofamid (RANMAN FLOWABLE [trade name], manufactured by Ishihara Sangyo Kaisha, Ltd.) was adjusted to 250 g ai/10a (0.25 g/m^2, 2500 ml Product/10a) as the amount of the active ingredient and to 150 L/10a as the volume of diluent water.
177 g/l Amisulbrom (LEIMAY FLOWABLE [trade name], manufactured by Nissan Chemical Industries, Ltd.) was adjusted individually to 250 g ai/10a (0.25 g/m^2, 1412 ml Product/10a) as the amount of the active ingredient and to 150 L/10a as the volume of diluent water.
After spreading an agricultural mulch-sheet and opening planting holes (diameter of about 9 cm) for permanent planting through the mulch-sheet, the spray solutions prepared as described above were sprayed onto the planting holes such that the amount of treated active ingredient of each spray solution was 0.25 g/m^2 (150 L per 10a), followed by air-drying; subsequently, seedlings of Chinese cabbage (cultivar: Muso) grown for 4 weeks in cell mold trays (128 holes/nursery box) were planted such that 30 seedlings were planted in each test lot having an area of 6 m^2 with two replications.
Preparation was performed by diluting streptomycin (Mycin 20 wettable powder solution [under the trade name] manufactured by Hokko Chemical Industry Co., Ltd.) with water to 1/1000.
In a field spread with the agricultural mulch-sheet, Chinese cabbage seedlings (cultivar: Muso) grown by the same method as in Example 1 were planted by the same method as in Example 1, for spraying the spray solution of streptomycin prepared above in (1) (at each spray volume of 300 L/10a) three times (13 days, 20 days and 27 days after the planting of the seedlings) on the stems and leaves.
54 days after the start of the tests, all the plants in each lot were examined about the severity level of the disease; according to the following equations, the ratio of the plants with the onset of the disease, the frequency of the disease, and the disease control value were calculated to determine and rank the effects at A to D levels. Because soft rot is a disease with damages hardly controlled, herein, even a chemical at the level C determined by the tests of the effects can practically be used.
Ratio of the plants with the onset of the disease=(Number of plants with the onset of the disease/number of plants examined)*100
Frequency of the disease=[sigma(number of plants with the onset of the disease at each severity level*index of the onset of the disease)/(plants examined*4)]*100 […]

[3] = tested on: bacteria causing the soft rot (Erwinia carotovora); experiment: Inhibition test of growth of bacteria causing soft rot, Reference Test Example 2; format: cell-based; details: for formed colonies (growth state), grade: PSA medium, 27 degrees Celsius, 2 days
Text: (§2) Inhibition test of growth of bacteria causing soft rot of potato An inhibition test of the growth of bacteria causing the soft rot was done, when a control agent was directly applied to the bacteria causing the soft rot. A given volume of each pesticide of azoxystrobin (Amistar-20 FLOWABLE [trade name], manufactured by Syngenta Japan K.K.), penthiopyrad (GAIA WG [trade name], manufactured by Mitsui Chemicals Agro, Inc.), flusulfamide (SCABLOCK SC [trade name] manufactured by Mitsui Chemicals Agro, Inc.), and streptomycin (Mycin Wettable powder [trade name] manufactured by Hokko Chemical Industry Co., Ltd.) was added together with a suspension of the bacteria causing the soft rot (Erwinia carotovora) to a preliminarily dissolved PSA culture medium (55 degrees Celsius) for subsequent thorough agitation, which was then spread on a plate for culturing at 27 degrees Celsius for 2 days, to examine the growth state. Subsequently, the formed colonies were examined according to the following three grades. • +: at the same level as the level of non-treated lot.
as §1

[4] = tested on: bacteria causing the soft rot (Erwinia carotovora); experiment: Inhibition test of growth of bacteria causing soft rot, Reference Test Example 1; format: cell-based; details: for formed colonies (growth state), grade: PSA medium, 25 degrees Celsius, 4 days
Method: as §2, with “An” for “Inhibition test of growth of bacteria causing soft rot of potato An”, “cyazofamid (RANMAN 400SC [trade name] manufactured by Ishihara Sangyo Kaisha, Ltd.), amisulbrom (LEIMAY” for “azoxystrobin (Amistar-20”, “Nissan Chemical Industries, Ltd.)” for “Syngenta Japan K.K.), penthiopyrad (GAIA WG [trade name], manufactured by Mitsui Chemicals Agro, Inc.), flusulfamide (SCABLOCK SC [trade name] manufactured by Mitsui Chemicals Agro, Inc.),”, “25” for “27”, “4” for “2”
as §1

[5] = active ingredient concentration of 1 ppm

Structure (SMILES): [H]/N=C(/N)N[C@H]1[C@H](O)[C@@H](O)[C@H](O[C@@H]2O[C@@H](C)[C@](O)(C=O)[C@H]2O[C@@H]2O[C@@H](CO)[C@H](O)[C@@H](O)[C@@H]2NC)[C@@H](N/C(N)=N\[H])[C@@H]1O [Streptomycin]
- formed colonies (growth state), grade ([1]; 1 ppm active ingredient): +, +
- formed colonies (growth state), grade ([1]; 10 ppm active ingredient): −, ±
- direct antibacterial activity against Erwinia carotovora (in words) ([1]; active ingredient concentration of 10 ppm): exerted a direct antibacterial activity
- Determination of effect [2]: D (D: Poorly effective (20 or smaller disease control value))
- formed colonies (growth state), grade ([3]; 1 ppm active ingredient): −, −
- formed colonies (growth state), grade ([3]; 10 ppm active ingredient): −, −
- direct antibacterial activity against Erwinia carotovora (in words) [3, 5]: exerted a direct antibacterial activity
- formed colonies (growth state), grade ([4]; 1 ppm active ingredient): −, −
- formed colonies (growth state), grade ([4]; 10 ppm active ingredient): −, −
- direct antibacterial activity against Erwinia carotovora (in words) [4, 5]: exerted a direct antibacterial activity
